For series [1], the target named is T1, Aβ1–40 aggregates (Homo sapiens, UniProt P05067).
T1 construct: β-amyloid(1–40) were purchased from AnaSpec; purchased AnaSpec (San Jose, CA, USA)
As to the kind of experiment: Competition binding assay on Aβ1–40 aggregates using [125I]TZDM as radio-ligand. The following applies: Aβ1–40 aggregates against [125I]TZDM; triplicate, mean ± SD. How it is done:
The lyophilized white powder of β-amyloid(1–40) were purchased from AnaSpec (San Jose, CA, USA). After reconstituted by adding basic buffer (1% NH4OH. 60–70 μL) to β-amyloid (1–40) (1 mg) aggregation of Aβ1–40 was carried out by gently dissolving Aβ1–40 (0.25 mg/mL) in a PBS buffer (pH 7.4). The solution was incubated at 37 °C for 72 h with gentle and constant shaking. Binding studies were carried out according to the procedure described previously with some modifications using [^125I]TZDM as the radiolabeled standard. […] The mixture was incubated at 37 °C for 2 h. […] Filters containing the bound ^125I ligand were counted in a γ-counter (WALLAC Wizard 1470, PerkinElmer Life Sciences, Waltham, MA, USA) with 75% counting efﬁciency. The IC50 values were determined using GraphPad Prism 5.0, and those for the inhibition constant (Ki) were calculated using the Cheng Prusoff equation: Ki = IC50/(1 + [L]/Kd).

In series [2] the target is Aβ plaques (Homo sapiens, UniProt P05067). As to the kind of experiment: In vitro fluorescent staining of amyloid plaques in brain sections from transgenic mouse. The class given is binding, transgenic model mouse (APP/PS1). The settings on record: brain sections 8 µm, APP/PS1, 12 months, male; 1 µM. The method, then:
Parafﬁn-embedded brain sections of transgenic model mouse (8 µm, APP/PS1, 12 months, male) were used for the in vitro fluorescent staining of amyloid plaques. The brain sections were deparafﬁnized with xylene, ethanol and distilled water. After immersion in PBS (0.02 M, pH 7.4) for 30 min, the brain sections were incubated with 20% ethanol solution (1 µM) of compound 8 for 10 min. The localization of plaques was confirmed by staining with thioﬂavin-S on the adjacent sections. Finally, the sections were washed with 40% ethanol and PBS (0.02 M, pH 7.4). Fluorescent observation was performed by a Stereo Discovery V12 instrument (Zeiss, Oberkochen, Germany) equipped with a LP 505 filter set (excitation, 405 nm).

Series [3] can be described thus: Partition coefficient determination (n-octanol/PBS). The class given is physicochemical. The following applies: n-octanol / PBS 0.02 M, pH 7.4. The method, then:
The determination of partition coefﬁcients of [^125I]8 and [^125I]17 was performed according to the procedure previously reported with some modifications. Ligand [^125I]8 or [^125I]17 (~5 μCi) was mixed with 3 mL each of n-octanol and PBS (0.02 M, pH 7.4) in a test tube. The test tube was vortexed for 5 min at room temperature, followed by centrifugation for 10 min at 3,000 rpm. Two weighed samples from the n-octanol (50 µL) and buffer layers (400 µL) were counted in a γ-counter. The partition coefﬁcient was expressed as the logarithm of the ratio of the counts per gram from n-octanol versus that of PBS. Samples from the n-octanol layer were repartitioned until consistent partition coefﬁcient values were obtained. The measurements were done in triplicate and repeated three times.

Series [4] in a line: In vivo biodistribution in normal mice. The following applies: iv injection. On the set-up: species or system KunMing normal mice. The method, then: In vivo biodistribution studies were performed in KunMing normal mice (female, average weight 18–22 g) and in accordance with the national laws related to the care and experiments on laboratory animal. A saline solution (100 µL) containing [^125I]8 or [^125I]17 (1 µCi) was injected directly into the tail vein of mice. The mice (n = 5 for each time point) were sacriﬁced at designated time points post-injection. The organs of interest were removed and weighed, and the radioactivity was counted with an automatic γ-counter (WALLAC Wizard 1470).

On the set-up of series [5]: method as in PMID 12519062. The settings on record: normal mice, cited from earlier work.

The text below walks through data of PMC6268995, “(E)-5-Styryl-1H-indole and (E)-6-Styrylquinoline Derivatives Serve as Probes for β-Amyloid Plaques” (Molecules, 2012).

Entries after “also recorded” stand apart in the source; their conditions may differ. Like-named read-outs stand apart in the source and are kept apart here.

T1 sequence (P05067 672-711 limits assumed): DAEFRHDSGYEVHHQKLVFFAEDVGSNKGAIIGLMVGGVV
Aβ plaques, sequence (P05067 672-711 limits assumed): as above

Take `Fc1ccc(/C=C/c2ccc3ncccc3c2)cc1` [Compound 14, (E)-6-(4-Fluorostyryl)quinoline]: the Ki in series [1] came out at 270.4 ± 1.5 nM.
In series [1], “(E)-5-(4-Methoxystyryl)-1H-indole [Compound 9]” had an inhibition constant Ki of 15.8 ± 1.5 nM.
Same read-out and setting: the same measure for `Clc1ccc(/C=C/c2ccc3ncccc3c2)cc1` [Compound 15, (E)-6-(4-Chlorostyryl)quinoline]: 45 ± 1.3 nM.
On to `Ic1ccc(/C=C/c2ccc3[nH]ccc3c2)cc1` [Compound 8, (E)-5-(4-Iodostyryl)-1H-indole], for which the melting point lay in the range of 211 to 212 °C. For the same compound, in series [1], the affinity corresponds to a Ki of 4.1 ± 0.2 nM. Also, the “Fluorescent staining of Aβ plaques” value in series [2] is reported as “specific binding to Aβplaques; also recorded: clearly stained Aβ plaques”.
`Brc1ccc(/C=C/c2ccc3[nH]ccc3c2)cc1` [Compound 7, (E)-5-(4-Bromostyryl)-1H-indole] yielded a melting point of 215 to 216 °C. Moreover, in series [1], the affinity, expressed as Ki, was 16.3 ± 1.7 nM.
`Clc1ccc(/C=C/c2ccc3[nH]ccc3c2)cc1` [Compound 6, (E)-5-(4-Chlorostyryl)-1H-indole]: in series [1], the Ki was determined as 51.5 ± 1 nM.
Compound `[125I]c1ccc(/C=C/c2ccc3ncccc3c2)cc1` [[^125I]17] came in with a logD in series [3] of 2.73. In series [4] (2 min), the “Biodistribution Blood” value came to 11.39 ± 1.56 % ID/g, the “Biodistribution Brain” value was found to be 2.05 ± 0.25 % ID/g, the “Biodistribution Heart” value amounted to 7.70 ± 0.86 % ID/g and the “Biodistribution Kidney” value was determined as 15.01 ± 1.56 % ID/g. Besides, in series [4] (2 min), the “Biodistribution Liver” value was found to be 22.45 ± 1.79 % ID/g, the “Biodistribution Lung” value is on record as 13.56 ± 1.71 % ID/g, the “Biodistribution Muscle” value amounted to 2.78 ± 0.42 % ID/g and the “Biodistribution Spleen” value is reported as 5.88 ± 0.30 % ID/g. The “Biodistribution Stomach” value in series [4] (2 min) was 4.05 ± 0.09 % ID/organ. In addition, in series [4] (15 min), the “Biodistribution Blood” value is listed as 6.31 ± 0.51 % ID/g, the “Biodistribution Brain” value came out at 1.18 ± 0.17 % ID/g, the “Biodistribution Heart” value was 3.80 ± 0.12 % ID/g and the “Biodistribution Kidney” value is listed as 7.47 ± 1.01 % ID/g. Moreover, in series [4] (15 min), the “Biodistribution Liver” value came to 9.95 ± 0.18 % ID/g, the “Biodistribution Lung” value was determined as 6.42 ± 0.47 % ID/g, the “Biodistribution Muscle” value was 1.68 ± 0.20 % ID/g and the “Biodistribution Spleen” value is listed as 5.91 ± 0.58 % ID/g. For the same compound, the “Biodistribution Stomach” value in series [4] (15 min) came out at 15.84 ± 0.78 % ID/organ. In addition, in series [4] (30 min), the “Biodistribution Blood” value was found to be 5.80 ± 0.37 % ID/g, the “Biodistribution Brain” value is on record as 0.93 ± 0.13 % ID/g, the “Biodistribution Heart” value was found to be 3.21 ± 0.11 % ID/g and the “Biodistribution Kidney” value was determined as 6.57 ± 0.50 % ID/g. In addition, in series [4] (30 min), the “Biodistribution Liver” value is listed as 9.12 ± 0.53 % ID/g, the “Biodistribution Lung” value was 5.64 ± 0.41 % ID/g, the “Biodistribution Muscle” value was found to be 2.30 ± 0.32 % ID/g and the “Biodistribution Spleen” value was determined as 4.66 ± 0.52 % ID/g. Moreover, the “Biodistribution Stomach” value in series [4] (30 min) stood at 8.11 ± 1.21 % ID/organ. In series [4] (60 min), the “Biodistribution Blood” value was found to be 3.86 ± 0.74 % ID/g, the “Biodistribution Brain” value came to 0.55 ± 0.11 % ID/g, the “Biodistribution Heart” value worked out at 2.55 ± 0.21 % ID/g and the “Biodistribution Kidney” value was 4.72 ± 0.69 % ID/g. Besides, in series [4] (60 min), the “Biodistribution Liver” value was 6.97 ± 0.28 % ID/g, the “Biodistribution Lung” value amounted to 4.55 ± 0.49 % ID/g, the “Biodistribution Muscle” value is 1.40 ± 0.34 % ID/g and the “Biodistribution Spleen” value is 4.71 ± 0.97 % ID/g. Moreover, the “Biodistribution Stomach” value in series [4] (60 min) stood at 6.75 ± 0.43 % ID/organ. Besides, in series [4] (120 min), the “Biodistribution Blood” value is 1.97 ± 0.35 % ID/g, the “Biodistribution Brain” value came to 0.26 ± 0.03 % ID/g, the “Biodistribution Heart” value is recorded as 1.33 ± 0.06 % ID/g and the “Biodistribution Kidney” value is 2.20 ± 0.34 % ID/g. In addition, in series [4] (120 min), the “Biodistribution Liver” value is on record as 3.93 ± 0.46 % ID/g, the “Biodistribution Lung” value was found to be 2.01 ± 0.18 % ID/g, the “Biodistribution Muscle” value amounted to 0.72 ± 0.21 % ID/g and the “Biodistribution Spleen” value came out at 2.25 ± 0.36 % ID/g. In series [4] (120 min), the “Biodistribution Stomach” value is on record as 11.12 ± 2.48 % ID/organ. Further, in series [4] (240 min), the “Biodistribution Blood” value is 1.38 ± 0.24 % ID/g, the “Biodistribution Brain” value was 0.14 ± 0.02 % ID/g, the “Biodistribution Heart” value was determined as 0.80 ± 0.19 % ID/g and the “Biodistribution Kidney” value is 1.64 ± 0.23 % ID/g. In addition, in series [4] (240 min), the “Biodistribution Liver” value was 2.96 ± 0.28 % ID/g, the “Biodistribution Lung” value is given as 1.43 ± 0.28 % ID/g, the “Biodistribution Muscle” value is on record as 0.61 ± 0.08 % ID/g and the “Biodistribution Spleen” value amounted to 1.59 ± 0.17 % ID/g. In addition, the “Biodistribution Stomach” value in series [4] (240 min) came to 7.03 ± 1.51 % ID/organ.
Regarding `C(=C\c1ccc2[nH]ccc2c1)/c1ccccc1` [Compound 4, (E)-5-Styryl-1H-indole], the melting point lay in the range of 162 to 163 °C. The same compound registered a Ki in series [1] of 25.1 ± 2.1 nM.
The compound `Cc1ccc(/C=C/c2ccc3ncccc3c2)cc1` [Compound 18, (E)-6-(4-Methylstyryl)quinoline] showed a Ki in series [1] of 288.4 ± 1.3 nM.
As to `Fc1ccc(/C=C/c2ccc3[nH]ccc3c2)cc1` [Compound 5, (E)-5-(4-Fluorostyryl)-1H-indole], the Ki in series [1] came out at 89.3 ± 2.6 nM.
In the case of `CN(C)c1ccc(-c2cn3cc([123I])ccc3n2)cc1` [[^123I]IMPY], the brain uptake in series [5] (2 min postinjection ref 16) is 2.88 % ID/organ; in series [5] (60 min postinjection ref 16), 0.21 % ID/organ. For the same compound, the brain2min/brain60min ratio in series [5] (from literature values ref 16) is 13.7.
In series [1], `COc1ccc(/C=C/c2ccc3[nH]ccc3c2)cc1` [Compound 10, (E)-5-(4-Methoxystyryl)-1H-indole] showed a Ki of 32.4 ± 1.9 nM.
Take `Brc1ccc(/C=C/c2ccc3ncccc3c2)cc1` [Compound 16, (E)-6-(4-Bromostyryl)quinoline]: the Ki in series [1] was 23.5 ± 1.3 nM.
For `Ic1ccc(/C=C/c2ccc3ncccc3c2)cc1` [Compound 17, (E)-6-(4-Iodostyryl)quinoline], the melting point lay in the range of 173 to 174 °C. In addition, affinity in series [1] was put at a Ki of 8.6 ± 1.2 nM.

One may read the Ki as the equilibrium dissociation constant of an inhibitor or competing ligand from its target. Low values mean a stronger hold on the target, high ones a looser hold on the target. The melting point is the temperature of the solid-liquid transition. As usually defined, the logD is the decadic logarithm of the distribution of all forms, ionised or not, between an organic phase and buffer at a given pH. A lower logD goes with a more hydrophilic compound.
